Results taken from US20080274057A1, “Staudinger Reaction in Imaging and Therapy and Kits for Use in Imaging and Therapy” (KONINKLIJKE PHILIPS ELECTRONICS, N.V., priority 2005, published 2008).
Like-named read-outs stand apart in the source and are kept apart here.

Columns and labels:
A431 cells = conditions: for anti-proliferative activity (ranking): 72 hours incubation, ranking among pro-dox, pro-dox plus phosphine, and doxorubicin
Protocol: 12) Cell proliferation assay using A431 cells with prodrug 9 (pro-dox) in situ activated by triphenylphosphine.
The in vitro anti-cancer activity of prodrug 9 (pro-dox) was assessed by means of cytotoxicity assays. For these cellular experiments the A431 cell line was used. […] The addition of the prodrug in combination with phosphine should lead to a reduction in proliferation compared to the addition of pro-dox without phosphine, due to the release of doxorubicin by means of the staudinger reaction.
Cells were maintained at 37° C. in DMEM (InVitrogen), supplemented with 10% heat-inactivated fetal bovine serum and 0.05% glutamax (InVitrogen) in the presence of penicillin and streptomycin.
Doxorubicin (Toronto Research Chemicals) and pro-dox (9) were, prior to each experiment, freshly dissolved in DMF at 10 mM and subsequently serial diluted in pre-warmed culture medium. Triphenylphosphine-3,3′,3″-trisulfonic acid trisodium salt (Sigma) was dissolved in PBS at 10 mM and serial diluted in pre-warmed medium. Methylthiazolyldiphenyl-tetrazolium bromide, MTT (Sigma) was used as described by the manufacturer.
Cells were plated out in a 96 well plate (Nunc) at a density of 7500 cells/well, followed by addition of reagents the next day. After 72 hours incubation cell proliferation was assessed by means of a MTT assay. Briefly, MTT was dissolved in pre-warmed medium at 5 mg/ml, passed through a 0.22 μm filter and 50 μl was added to each well. Following an incubation period of 120 minutes the medium was gently aspirated. The formed formazan crystals were dissolved in 100 μl DMSO and the absorbance, or optical density (O.D.), was measured with a plate reader (BMG) at 560 nm. The inhibition of proliferation was determined by reporting the O.D. of the treated group (T) with the O.D. of the appropriate control group (C), and expressed as [(1-T/C)×100%].
Therefore, instead of adding the prodrug to the cell culture together with a single batch triphenylphosphine on day 2, the phosphine was added at fixed intervals from day 2 to day 4. Three phosphine dosing schemes were investigated: 5×10 μM, 5×30 μM, and 5×60 μM. The range of the concentrations used for the doxorubicin drugs was 0-0.01-0.1-0.3-1.0-10 μM.
The above phosphine-dosing scheme was compared to a single batch-dosing scheme at the same total amount of phosphine.

[1] = Activation of model azido-prodrug 4 by 3-(diphenylphosphino)benzenesulfonate (5), followed with 1H NMR
Protocol: 9) Activation of model azido-prodrug 4-azidobenzyl N-benzyl carbamate (4) by 3-(diphenylphosphino)benzenesulfonate (5) in two different media.
In DMF/H2O (3.5/1): Prodrug 4 (5.3 mg, 18.8 μmol) was dissolved in 952 μl DMF-d7 and 275 μl D2O. Phosphine 5 (12.1 mg, 33.2 μmol) was added and the reaction was followed with ^1H NMR. The reaction had run to completion within 14 hours as judged from the disappearance of the CH2 azidobenzyl signal at 4.83 ppm and the appearance of the CH2 signal of the corresponding aminobenzylalcohol (7) at 4.64 ppm.
In THF/H2O (1/1): Prodrug 4 (4.8 mg, 17.0 μmol) was dissolved in 275 μl THF-d8 and 275 μl D2O. Phosphine 5 (11.3 mg, 31.0 μmol) was added to the slightly yellow solution after which gas development was observed. The reaction was followed with ^1H NMR and had to run to 50% after 7 hours as judged from the disappearance of the CH2 benzyl signal at 4.38 ppm and the appearance of the CH2 signal of the corresponding free benzylamine (6) at 3.99 ppm.

[2] = for extent of activation reaction: 10 μM prodrug
Protocol: 11) Activation of the doxorubicin prodrug (9) followed with HPLC and LC-MS
The activation was carried out in the following way: a solution of prodrug in water or growth medium was mixed with a solution of triphenylphosphine-3,3′,3″-trisulfonic acid trisodium salt in water or growth medium. Samples were taken from the reaction mixture (at 37 C) every 2 hours and measured in the HPLC or LCMS. Several different concentrations and ratios prodrug/triphenylphosphine were used. The first activation experiment was done in water with a concentration of 100 μM for the prodrug and 200 μM for the phosphine, and monitored with HPLC.
The second activation was done at a 10-fold lower concentration, 10 μM for the prodrug and 20 μM for the phosphine, and monitored with LCMS.
The third and last activation was done in cell growth medium at 10 μM prodrug. […] During this experiment a fresh portion (60 μM) triphenylphosphine was added to the mixture twice a day.

Row | Compound | anti-proliferative activity (ranking) (A431 cells; MTT) | activity relative to pro-dox (A431 cells; 72 hours, MTT) | time until reaction had run to completion ([1]; DMF/H2O (3.5/1), prodrug 18.8 μmol, phosphine 5 33.2 μmol) [h] | extent of reaction (release of free benzylamine) ([1]; THF/H2O (1/1), after 7 hours, prodrug 17.0 μmol, phosphine 5 31.0 μmol) [%] | extent of activation reaction ([2]; 20 μM phosphine, after 24 hours, LCMS) | extent of activation reaction ([2]; cell growth medium, fresh 60 μM triphenylphosphine added twice a day, after 8 hours) [%] | time until reaction was complete ([2]; water, 37 C, 100 μM prodrug, 200 μM phosphine, HPLC) [h] | doxorubicin formed ([2]; water, 37 C, 100 μM prodrug, 200 μM phosphine, after 8 hours, HPLC) [%] | increase of activity over pro-dox alone (A431 cells; 72 hours, MTT, pro-dox with 60 μM repetitive dose (5×60 μM) of phosphine) [fold] | activation by a single dose of phosphine compared with sequential additions (A431 cells; identical total phosphine amounts)
1 | COc1cccc2c1C(=O)c1c(O)c3c(c(O)c1C2=O)C[C@@](O)(C(=O)CO)C[C@@H]3O[C@H]1C[C@H](N)[C@H](O)[C@H](C)O1 [Doxorubicin, reference compound] | highest activity | 2 orders of magnitude |  |  |  |  |  |  |  | 
2 | [N-]=[N+]=Nc1ccc(COC(=O)NCc2ccccc2)cc1 [prodrug 4, 4-azidobenzyl N-benzyl carbamate] |  |  | ≤ 14 | 50 |  |  |  |  |  | 
3 | Azidobenzyl carbamate Doxorubicin [prodrug 9] | lowest anti-proliferative activity |  |  |  | approximately 30% | 85 | 20 | 15 | 33 | not nearly as effective
